Laboratory results reported in ChEMBL document CHEMBL3880421, “Indazole compounds and pharmaceutical compositions for inhibiting protein kinases, and methods for their use” (2003).

Experiments:
[1] = Antiproliferative activity against VEGF-stimulated HUVEC cells assessed as reduction in cell viability at 2 nM preincubated for 1 hr followed by addition of VEGF measured after 72 hrs by MTT assay; type: functional; settings: Homo sapiens
[2] = Antiproliferative activity against VEGF-stimulated HUVEC cells assessed as reduction in cell viability at 0.5 nM preincubated for 1 hr followed by addition of VEGF measured after 72 hrs by MTT assay; type: functional; settings: Homo sapiens

Row | Compound | inhibition at 0.002 µM [1] [%] | inhibition at 0.0005 µM [2] [%]
1 | N#CCCNNC(=O)c1ccccc1Nc1ccc2c(/C=C/c3ccccn3)n[nH]c2c1 | 5 | 44
2 | O=C(N[C@@H]1CCCC[C@@H]1O)c1ccccc1Nc1ccc2c(/C=C/c3ccccn3)n[nH]c2c1 | 59 | 26
3 | CC1CC(NC(=O)c2ccccc2Nc2ccc3c(/C=C/c4ccccn4)n[nH]c3c2)CC(C)(C)C1 (centres undefined) | 31 | 25
4 | NC(=O)[C@H]1CCCC[C@H]1NC(=O)c1ccccc1Nc1ccc2c(/C=C/c3ccccn3)n[nH]c2c1 | 39 | 21
5 | CCn1nccc1NC(=O)c1ccccc1Nc1ccc2c(/C=C/c3ccccn3)n[nH]c2c1 | 2 | 26
6 | CC1CCCC(NC(=O)c2ccccc2Nc2ccc3c(/C=C/c4ccccn4)n[nH]c3c2)C1 (centres undefined) | 59 | 69
7 | Cc1cc(C(=O)NNC(=O)c2ccccc2Nc2ccc3c(/C=C/c4ccccn4)n[nH]c3c2)[nH]n1 | 39 | 26
8 | Cc1cc(NC(=O)c2ccccc2Nc2ccc3c(/C=C/c4ccccn4)n[nH]c3c2)no1 | 14 | 28
9 | Cc1ccc(CNC(=O)c2ccccc2Nc2ccc3c(/C=C/c4ccccn4)n[nH]c3c2)o1 | 96 | 56
10 | CC(C)CC(C)NC(=O)c1ccccc1Nc1ccc2c(/C=C/c3ccccn3)n[nH]c2c1 (centres undefined) | 50 | 55
11 | COc1cccc(CNC(=O)c2ccccc2Nc2ccc3c(/C=C/c4ccccn4)n[nH]c3c2)c1 | 100 | 58
12 | O=CNNC(=O)c1ccccc1Nc1ccc2c(/C=C/c3ccccn3)n[nH]c2c1 | 29 | 28
13 | CCN1CC(NC(=O)c2ccccc2Nc2ccc3c(/C=C/c4ccccn4)n[nH]c3c2)CN1CC | -19 | 2
14 | N#CCONC(=O)c1ccccc1Nc1ccc2c(/C=C/c3ccccn3)n[nH]c2c1 | 2 | 16
15 | O=C(NCCOCCO)c1ccccc1Nc1ccc2c(/C=C/c3ccccn3)n[nH]c2c1 | 24 | 10
16 | NC(=O)CNC(=O)c1ccccc1Nc1ccc2c(/C=C/c3ccccn3)n[nH]c2c1 | 4 | 6
17 | O=C(NCCc1ccncc1)c1ccccc1Nc1ccc2c(/C=C/c3ccccn3)n[nH]c2c1 | 22 | 18
18 | O=C(NC1CCCCC1)c1ccccc1Nc1ccc2c(/C=C/c3ccccn3)n[nH]c2c1 | 76 | 12
19 | O=C(NC1CCCC1)c1ccccc1Nc1ccc2c(/C=C/c3ccccn3)n[nH]c2c1 | 96 | 43
20 | O=C(NCCCn1ccnc1)c1ccccc1Nc1ccc2c(/C=C/c3ccccn3)n[nH]c2c1 | 23 | 23
21 | CCCC(CO)NC(=O)c1ccccc1Nc1ccc2c(/C=C/c3ccccn3)n[nH]c2c1 (centres undefined) | 40 | 44
22 | O=C(NCC(O)c1ccccc1)c1ccccc1Nc1ccc2c(/C=C/c3ccccn3)n[nH]c2c1 (centres undefined) | 55 | 12
23 | O=C(NN1CCN(CCO)CC1)c1ccccc1Nc1ccc2c(/C=C/c3ccccn3)n[nH]c2c1 | 25 | 25
24 | O=C(NNCCO)c1ccccc1Nc1ccc2c(/C=C/c3ccccn3)n[nH]c2c1 | 18 | 33
25 | CCCCN(CCCC)CCCNC(=O)c1ccccc1Nc1ccc2c(/C=C/c3ccccn3)n[nH]c2c1 | 10 | 32
26 | COCCNC(=O)c1ccccc1Nc1ccc2c(/C=C/c3ccccn3)n[nH]c2c1 | 60 | 21
27 | CCN(CC)CCCC(C)NC(=O)c1ccccc1Nc1ccc2c(/C=C/c3ccccn3)n[nH]c2c1 (centres undefined) | 15 | 3
